Patent publication US6500846B1, “CDK inhibitors having flavone structure” (LG Chemical, Ltd., priority 1998, dated 2002)

What was measured:
CDK4/cyclin D1 = target: T1, CDK4/cyclin D1 (Homo sapiens, UniProt P11802); experiment: Inhibitory activity against CDK4/cyclin D1 enzyme (GST-RB phosphorylation, P32-γ-ATP, scintillation counting); type: biochemical; details: CDK4/cyclin D1, 100 μM ATP, GST-RB substrate, 30° C. 30 minutes
T1 construct: made in house; host or cells: insect cells infected with baculoviruses
T1 sequence (P11802 whole entry, species assumed): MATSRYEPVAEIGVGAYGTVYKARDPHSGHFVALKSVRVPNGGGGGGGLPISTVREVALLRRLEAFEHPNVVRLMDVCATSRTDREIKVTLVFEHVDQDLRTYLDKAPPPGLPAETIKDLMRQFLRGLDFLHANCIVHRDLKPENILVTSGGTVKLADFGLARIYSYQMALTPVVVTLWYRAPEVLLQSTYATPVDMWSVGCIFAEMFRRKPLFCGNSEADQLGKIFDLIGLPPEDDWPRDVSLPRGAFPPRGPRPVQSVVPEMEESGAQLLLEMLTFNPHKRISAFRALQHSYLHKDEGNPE
T1 sequence (P24385 whole entry partner, species assumed): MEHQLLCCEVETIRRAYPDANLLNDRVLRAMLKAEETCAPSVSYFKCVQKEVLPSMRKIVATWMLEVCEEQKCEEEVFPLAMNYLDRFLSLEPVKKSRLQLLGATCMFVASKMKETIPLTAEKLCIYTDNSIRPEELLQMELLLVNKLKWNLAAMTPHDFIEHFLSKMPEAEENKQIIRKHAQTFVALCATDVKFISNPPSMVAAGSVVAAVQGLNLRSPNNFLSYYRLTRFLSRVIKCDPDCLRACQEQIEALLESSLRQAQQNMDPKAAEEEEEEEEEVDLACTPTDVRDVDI
Experimental: (§1) Analysis of inhibitory activity against CDK2/cyclin A and CDK4/cyclin D1 enzyme.
(§2) The inhibitory activity against CDK2 is measured by referring to Kitagawa, M. et al., Oncogene 9:2549, 1994 and the inhibitory activity against CDK4 is measured by referring to Carlson, B. A. et al., Cancer Research 56:2473,1996.
(§3) As for CDK2, either the extract from the insect cell infected both with baculovirus which expresses CDK2 gene and baculovirus which expresses cyclin A gene or the active enzyme which had been purified therefrom was used. CDK4 enzyme was also obtained from the insect cell infected both with baculovirus expressing CDK4 gene and baculovirus expressing cyclin D1 gene. As the substrate for CDK2, either histon H1 or Rb protein was used. Rb protein was also used as the substrate for CDK4.
(§4) Specifically the activities of enzymes CDK2/cyclin A and CDK4/cyclin D1 were determined according to the following procedure.
(§5) 100 ng of enzyme was reacted in a total 1000 μl of 20 mM Tris (pH 8.0), 100 mM NaCl, 10 mM MgCl2 buffer solution containing 20 μg of GST-RB protein, 100 μM of ATP and 5 μCi of P32-γ-ATP at 30° C. for 30 minutes. Then, the enzyme reaction was stopped by adding EDTA to a concentration of 20 mM. Subsequently, 30 μl of 50% glutathione bead (purchased from Pharmacia) was added to attach GST-RB to the bead, which was washed three times with 20mM Tris (pH 8.0), 100 mM NaCl, 10 mM EDTA solution, and then scintillation counting was carried out. To analyze the inhibitory activity of the compound, the inhibitor having a proper concentration was added to the enzyme reaction solution, and then the enzyme activity was measured according to the above method.
(§6) The inhibitory activity of the compound of formula (1) according to the present invention against CDK2 and CDK4 is represented as IC50 value. The compounds which are not included in Examples(compound 63, 64, 65 and 66) were synthesized and purified according to the same procedure as examples, and then IC50 thereof was measured.

CDK2/cyclin A = target: T2, CDK2/cyclin A (Homo sapiens, UniProt P24941); experiment: Inhibitory activity against CDK2/cyclin A enzyme (GST-RB phosphorylation, P32-γ-ATP, scintillation counting); type: biochemical; details: 100 μM ATP, GST-RB substrate, 30° C. 30 minutes
T2 construct: made in house; host or cells: insect cells infected with baculoviruses
Experimental: as §1, §2, §3, §4, §5, §6

SMILES	IC50 (CDK4/cyclin D1) [µM]	IC50 (CDK2/cyclin A) [µM]
COc1ccc2c(=O)cc(-c3ccc(Cl)cc3)oc2c1 [Compound 1, 2-(4-chloro-phenyl)-7-methoxy-chromen-4-one]	> 200	> 200
COc1ccc2c(=O)cc(-c3ccccc3)oc2c1 [Compound 2, 7-methoxy-2-phenyl-chromen-4-one]	> 200	> 200
O=c1cc(-c2ccccc2)oc2cc(O)ccc12 [Compound 3, 7-hydroxy-2-phenyl-chromen-4-one]	> 200	> 200
COc1cccc2oc(-c3ccc4c(c3)OCO4)c(O)c(=O)c12 [Compound 4, 2-(benzo[1,3]dioxol-5-yl)-3-hydroxy-5-methoxy-chromen-4-one]	> 100	> 100
COc1ccc2oc(-c3ccc4c(c3)OCO4)c(O)c(=O)c2c1 [Compound 5, 2-(benzo[1,3]dioxol-5-yl)-3-hydroxy-6-methoxy-chromen-4-one]	> 100	> 100
COc1ccc2c(=O)c(O)c(-c3ccc4c(c3)OCO4)oc2c1 [Compound 6, 2-(benzo[1,3]dioxol-5-yl)-3-hydroxy-7-methoxy-chromen-4-one]	> 100	> 100
COc1ccc(-c2oc3cc(OC)ccc3c(=O)c2O)cc1 [Compound 7, 3-hydroxy-7-methoxy-2-(4-methoxy-phenyl)-chromen-4-one]	> 100	> 100
COc1ccc2c(=O)c(O)c(-c3ccc(Cl)cc3)oc2c1 [Compound 8, 2-(4-chloro-phenyl)-3-hydroxy-7-methoxy-chromen-4-one]	> 100	> 100
COc1ccc(-c2oc3c([N+](=O)[O-])cc(Cl)cc3c(=O)c2O)cc1 [Compound 9, 6-chloro-3-hydroxy-2-(4-methoxy-phenyl)-8-nitro-chromen-4-one]	> 100	> 100
COc1ccc(-c2oc3c(Cl)cc(Cl)cc3c(=O)c2O)cc1 [Compound 10, 6,8-dichloro-3-hydroxy-2-(4-methoxy-phenyl)-chromen-4-one]	> 100	> 100
COc1ccc(-c2oc3ccccc3c(=O)c2O)cc1 [Compound 11, 3-hydroxy-2-(4-methoxy-phenyl)-chromen-4-one]	> 100	> 100
O=c1c(O)c(-c2ccc(O)c(O)c2)oc2ccc(Cl)cc12 [Compound 12, 6-chloro-2-(3,4-dihydroxyphenyl)-3-hydroxy-4H-chromen-4-one]	< 10	< 5
O=c1c(O)c(-c2ccc(O)c(O)c2)oc2ccc(Br)cc12 [Compound 13, 6-bromo-2-(3,4-dihydroxyphenyl)-3-hydroxy-4H-chromen-4-one]	< 5	< 5
Nc1ccc2oc(-c3ccc(O)c(O)c3)c(O)c(=O)c2c1 [Compound 15, 6-amino-2-(3,4-dihydroxyphenyl)-3-hydroxy-4H-chromen-4-one]	< 5	< 5
COc1ccc2oc(-c3ccc(O)c(O)c3)c(O)c(=O)c2c1 [Compound 16, 2-(3,4-dihydroxyphenyl)-3-hydroxy-6-methoxy-4H-chromen-4-one]	< 10	< 10
Cc1ccc2oc(-c3ccc(O)c(O)c3)c(O)c(=O)c2c1 [Compound 18, 6-methyl-2-(3,4-dihydroxyphenyl)-3-hydroxy-4H-chromen-4-one]	< 10	< 10
O=c1c(O)c(-c2ccc(O)c(O)c2)oc2c(Cl)cc(Cl)cc12 [Compound 19, 6,8-dichloro-2-(3,4-dihydroxyphenyl)-3-hydroxy-4H-chromen-4-one]	< 10	< 10
O=c1c(O)c(-c2ccc(O)c(O)c2)oc2c(Br)cc(Br)cc12 [Compound 20, 6,8-Dibromo-2-(3,4-dihydroxyphenyl)-3-hydroxy-4H-chromen-4-one]	< 5	< 5

SMILES	IC50 (CDK4/cyclin D1) [µM]	IC50 (CDK2/cyclin A) [µM]
O=c1c(O)c(-c2ccc(O)c(O)c2)oc2c(F)cc(F)cc12 [Compound 21, 6,8-difluoro-2-(3,4-dihydroxyphenyl)-3-hydroxy-4H-chromen-4-one]	< 10	< 10
Cc1cc2oc(-c3ccc(O)c(O)c3)c(O)c(=O)c2cc1Cl [Compound 22, 6-chloro-2-(3,4-dihydroxyphenyl)-3-hydroxy-7-methyl-4H-chromen4-one]	< 10	< 10
COc1ccc2c(=O)c(O)c(-c3ccc(O)c(O)c3)oc2c1 [Compound 23, 2-(3,4-Dihydroxyphenyl)-3-hydroxy-7-methoxy-4H-chromen-4-one]	< 30	< 30
COc1ccc2c(=O)c(O)c(-c3ccc(O)c(O)c3)oc2c1O [Compound 24, 2-(3,4-dihydroxyphenyl)-3,8-dihydroxy-7-methoxy-4H-chromen-4-one]	< 10	< 10
O=c1c(O)c(-c2ccc(O)c(O)c2)oc2c(O)cccc12 [Compound 25, 2-(3,4-dihydroxyphenyl)-3,8-dihydroxy-4H-chromen-4-one]	< 10	< 10
Cc1cc2oc(-c3ccc(O)c(O)c3)c(O)c(=O)c2cc1C [Compound 26, 2-(3,4-dihydroxyphenyl)-6,7-dimethyl-3-hydroxy-4H-chromen-4-one]	< 10	< 10
COc1cccc2oc(-c3ccc(O)c(O)c3)c(O)c(=O)c12 [Compound 27, 2-(3,4-dihydroxyphenyl)-3-hydroxy-5-methoxy-4H-chromen-4-one]	< 10	< 10
O=c1c(O)c(-c2ccc(O)c(O)c2)oc2ccc(NS(=O)(=O)c3ccc(Br)cc3)cc12 [Compound 29, 4-bromo-N-[2-(3,4-dihydroxyphenyl)-3-hydroxy-4-oxo-4H-chromen-6-yl]benzenesulfonamide]	1.8	17.8
O=c1c(O)c(-c2ccc(O)c(O)c2)oc2ccc(NS(=O)(=O)c3cccc(Br)c3)cc12 [Compound 30, 3-bromo-N-[2-(3,4-dihydroxyphenyl)-3-hydroxy-4-oxo-4H-chromen-6-yl]benzenesulfonamide]	2.1	14
O=c1c(O)c(-c2ccc(O)c(O)c2)oc2ccc(NS(=O)(=O)c3ccc4ccccc4c3)cc12 [Compound 31, N-[2-(3,4-dihydroxyphenyl)-3-hydroxy-4-oxo-4H-chromen-6-yl]-2-naphthalenesulfonamide]	4.2	35.5
CN(C)c1cccc2c(S(=O)(=O)Nc3ccc4oc(-c5ccc(O)c(O)c5)c(O)c(=O)c4c3)cccc12 [Compound 32, N-[2-(3,4-dihydroxyphenyl)-3-hydroxy-4-oxo-4H-chromen-6-yl]-5-(dimethylamino)-1-naphthalenesulfonamide]	4.2	35.5
O=c1c(O)c(-c2ccc(O)c(O)c2)oc2ccc(NS(=O)(=O)CCc3cccc4ccccc34)cc12 [Compound 33, N-[2-(3,4-dihydroxyphenyl)-3-hydroxy-4-oxo-4H-chromen-6-yl]-2-(1-naphthyl)-1-ethanesulfonamide]	5	63
O=c1c(O)c(-c2ccc(O)c(O)c2)oc2ccc(NS(=O)(=O)c3cc(Br)c(Br)s3)cc12 [Compound 34, 4,5-Dibromo-N-[2-(3,4-dihydroxyphenyl)-3-hydroxy-4-oxo-4H-chromen-6-yl]-2-thiophenesulfonamide]	1	3
O=c1c(O)c(-c2ccc(O)c(O)c2)oc2ccc(NS(=O)(=O)c3ccc(-c4ccccc4)cc3)cc12 [Compound 35, N-[2-(3,4-Dihydroxyphenyl)-3-hydroxy-4-oxo-4H-chromen-6-yl]-[1,1′-biphenyl]-4-sulfonamide]	2	4
O=c1c(O)c(-c2ccc(O)c(O)c2)oc2ccc(NS(=O)(=O)c3ccc(-c4ccon4)s3)cc12 [Compound 36, N-[2-(3,4-dihydroxyphenyl)-3-hydroxy-4-oxo-4H-chromen-6-yl]-5-(isooxazolyl)-2-thiophenesulfonamide]	3.5	12
O=c1c(O)c(-c2ccc(O)c(O)c2)oc2ccc(NS(=O)(=O)c3ccc(-c4ccccn4)s3)cc12 [Compound 37, N-[2-(3,4-dihydroxyphenyl)-3-hydroxy-4-oxo-4H-chromen-6-yl]-5-(2-pyridinyl)-2-thiophenesulfonamide]	4.2	12.5
O=c1c(O)c(-c2ccc(O)c(O)c2)oc2ccc(NS(=O)(=O)c3ccc(N4CCOCC4)c([N+](=O)[O-])c3)cc12 [Compound 48, N-[2-(3,4-dihydroxyphenyl)-3-hydroxy-4-oxo-4H-chromen-6-yl]-4-(4-morpholinyl)-3-nitrobenzenesulfonamide]	0.94	
